Results published in US11642332B2, “(2R,4R)-5-(5′-chloro-2′-fluorobiphenyl-4-yl)-2-hydroxy-4-[(5-methyloxazole-2-carbonyl)amino]pentanoic acid” (THERAVANCE BIOPHARMA R&D IP, LLC, priority 2015, dated 2023).
Read-outs that look alike come from different tables or passages of the source.

Legend:
[1] = Renal excretion of Compound 1 in dog; format: in vivo, male beagle dogs; details: for Urinary Excretion (approximate % of administered dose excreted in urine) Mean: 0-24 hrs
Experimental: (§1) An important factor for insuring appropriate long term drug dosing and correct steady-state drug concentrations in patients is drug clearance. In general, decreased drug clearance results in higher drug concentrations and greater drug effects. In order to understand renal clearance of Compound 1, the percent of administered dose recovered in urine following a single IV dose was assessed in three animal species. Three separate studies in male Sprague Dawley rats, male beagle dogs and male cynomolgus monkeys, respectively, were conducted and the procedure and experimental results are described below.
Male beagle dogs (N=6, two groups of 3), having body weights of 9.04-10.2 kg and 10.8-11.5 kg, received an IV dose of Compound 1 at 0.1 mg/kg (Group I) and 1.255 mg/kg (Group II) as part of a dosing cassette. Compound 1 was dissolved in PEG-200:ethanol:water (40:10:50) and filtered through a […] polyvinyl difluoride (PVDF) syringe filter prior to administration. The dogs had access to food ad libitum before and after administration of Compound 1. Urine samples were collected on cold packs into pre-weighed containers that were prefilled with 0.5 mL glacial acetic acid. The samples were weighed again and additional glacial acetic acid was added if needed to a final concentration of 2%. The samples were frozen and stored (−80° C.) prior to bioanalysis.
Dog urine concentrations of Compound 1 were determined by LC/MS/MS. Urine study samples (diluted in plasma K2EDTA(1:9)) were vortexed and 25 μL was placed in a 96-well plate. The samples were extracted with 100 μL in acetonitrile with internal standard Glyburide. The extract was centrifuged for 5 minutes at 3100 RPM and 75 μL of supernatant was transferred and mixed with 150 μL water. Samples (12 μL) were injected on a Waters Acquity UPLC BEH C18 (50×2.1 mm, 1.7 μm) column with a flow rate of 0.9 mL/min. Mobile phase A consisted of 95:5:0.1 (v:v:v) water:acetonitrile:formic acid and mobile phase B consisted of 50:50:0.1 (v:v:v) methanol:acetonitrile:formic acid. The gradient elution started with 35% to 90% B from 0.2 to 1.6 min, held at 95% from 1.7 to 2.2 min., followed by a step of 95% to 35% B from 2.20 to 2.30 min. Compound 1 assay range was 0.000100 to 1.00 μg/mL.
The mean amount of urine excreted over a collection period of 24 hrs and the approximate % of administered dose excreted in urine is reported in the table below.

[2] = IV/PO pharmacokinetic study of Compound 1 in monkeys; format: in vivo; details: male, cynomolgus monkey, plasma, 1 mg/kg; for AUC(0-t): read-out: AUClast Mean
Experimental: A monkey PK study was performed with an appropriate mass of compound 1 in volume of vehicle (e.g., 5% sodium bicarbonate, 5% dextrose in H2O, pH 7.4, for oral and PEG200:EtOH:Water (40:10:50), pH 7.0, filtered through a […] PDVF syringe for IV) such that the final concentration was dosed at 0.5 mL/kg (IV) or 2.0 mL/kg (PO).
Male cynomologus monkeys (3 per route) housed at Xenometrics (Stilwell, Kans.) received an IV or PO dose of compound 1 at 1 mg/kg. Animals administered IV doses had access to food ad libitum and those administered PO doses were fasted overnight and received food approximately 4 hours after dose administration. Blood samples were collected from each animal at each time point (pre-dose, 0.083 hour, 0.25 hour, 0.5 hour, 1 hour, 2 hours, 4 hours, 6 hours, 8 hours, 12 hours, and 24 hours) via the cephalic, femoral, or sphenous vein through 48 hours. All samples were collected into K2EDTA tubes and placed on ice. Samples were processed to plasma by centrifugation (3200 rpm, 10 minutes, 5° C.), and acidified with a final concentration of 2% acetic acid. Aliquots of plasma were transferred to a 96-well plate tubes and stored frozen (−70° C.) prior to bioanalysis. Plasma concentrations of compound 1 were determined by LC/MS/MS. Plasma study samples were vortexed and placed in a 96-well plate. The samples were extracted with 200 μL of 0.2% formic acid in acetonitrile with an internal standard. The extract was centrifuged for 10 minutes at 3700 RPM and supernatant was mixed with 0.2% formic acid in water. Samples (15 μL) were injected on a Thermo (C18 50×2.1 mm) column with a flow rate of 0.3 mL/min. […] Pharmacokinetic parameters of compound 1 were determined by non-compartmental analysis (Model 201 and Model 200 for IV and PO administration, respectively) using Phoenix WinNonlin Version 6.3 (Certara, Sunnyvale, Calif.) and using individual plasma concentration time profiles from 3 animals.
Plasma clearance was determined from the intravenous arm of the study, and represents the rate at which plasma is cleared of drug. […]

[3] = Renal excretion of Compound 1 in monkey; format: in vivo, male cynomolgus monkeys; details: IV 1 mg/kg
Experimental: as §1
Male cynomolgus monkeys (N=3), having body weights of 4.42-5.81 kg, received an IV dose of compound 1 at 1 mg/kg. Compound 1 was dissolved in PEG-200:ethanol:water (40:10:50) and filtered through a […] polyvinyl difluoride (PVDF) syringe filter prior to administration. The monkeys had access to food ad libitum before and after administration of Compound 1. Urine samples were collected on dry ice during the collection interval periods, the sample volumes were recorded, and the urine acidified with acetic acid to a final concentration of approximately 2% acetic acid. Aliquots were obtained and frozen (−70° C.) prior to bioanalysis.
Monkey urine concentrations of Compound 1 were determined by LC/MS/MS. Urine samples were thawed and diluted in plasma K2EDTA (1:4). […]

Amount of Compound 1 Excreted in Urine over Collection Period (0-24 hrs) Mean ([1]; IV 0.1 mg/kg): 15.8 µg
Urinary Excretion (approximate % of administered dose excreted in urine) Mean ([1]; IV 0.1 mg/kg): 0.92%
Amount of Compound 1 Excreted in Urine over Collection Period (0-24 hrs) Mean ([1]; IV 1.26 mg/kg): 103 µg
Urinary Excretion (approximate % of administered dose excreted in urine) Mean ([1]; IV 1.26 mg/kg): 1.67%
AUC(0-t) ([2]; IV): 2780 ng·h/mL
AUC(0-t) ([2]; PO): 1660 ng·h/mL
bioavailability ([2]; oral, PO vs IV): ~60%
Amount of Compound 1 Excreted in Urine over Collection Period (0-24 hrs) Mean [3]: 157 µg
Compound: Cc1cnc(C(=O)N[C@H](Cc2ccc(-c3cc(Cl)ccc3F)cc2)C[C@@H](O)C(=O)O)o1 [Compound 1, (2R,4R)-5-(5′-Chloro-2′-fluorobiphenyl-4-yl)-2-hydroxy-4-[(5-methyloxazole-2-carbonyl)amino]pentanoic Acid]
